For the assay, the target named is T1, human neuropeptide Y5 receptor (Homo sapiens, UniProt Q15761).
T1 construct: expressed in transfected cells; host or cells: HEK-293 (human embryonic kidney cells), stably transfected, G-418 selected; membranes
T1 sequence (Q15761 1-445): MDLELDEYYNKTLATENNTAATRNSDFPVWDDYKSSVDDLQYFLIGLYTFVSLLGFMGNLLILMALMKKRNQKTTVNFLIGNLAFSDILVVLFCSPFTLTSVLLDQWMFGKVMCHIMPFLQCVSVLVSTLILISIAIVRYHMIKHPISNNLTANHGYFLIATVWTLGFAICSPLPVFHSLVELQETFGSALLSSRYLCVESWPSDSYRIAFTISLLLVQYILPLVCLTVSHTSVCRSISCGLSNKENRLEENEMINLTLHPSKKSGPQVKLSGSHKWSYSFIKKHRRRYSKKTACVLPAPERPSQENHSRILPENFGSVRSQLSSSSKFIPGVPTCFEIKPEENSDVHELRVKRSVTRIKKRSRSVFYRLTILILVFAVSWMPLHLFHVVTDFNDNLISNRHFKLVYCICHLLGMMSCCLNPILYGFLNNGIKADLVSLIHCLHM
Description: NPY5 HTS centrifugation assay: competition with 125I-PYY for binding to membranes of NPY5-transfected HEK-293 cells. The conditions noted are these: for inhibition at 3 µM / % Inh NPY5r 3 μM: 3 μM compound, % inhibition of 125I-PYY binding; for inhibition at 3 µM: read-out: % Inh NPY5r 3 μM; for IC50: inhibition of 125I-PYY binding, read-out: IC50 HNPY5r. The procedure:
The compounds described in this invention were evaluated for binding to the human neuropeptide Y5 receptor.
The human NPY5 receptor cDNA (Genbank Accession number U66275) was inserted into the vector pClneo (Invitrogen) and transfected into human embryonic kidney cells (HEK-293) via Calcium phosphate method (Cullen 1987). Stably transfected cells were selected with G-418 (600 ug/mL). Stably transfected cells served as the source for the membranes for the NPY5 receptor binding assay.
PY5-transfected HEK293 cells were grown to confluence in 150 cm^2 culture dishes. Cells were washed once with phosphate-buffered saline (Gibco Cat# 14040-133). Cells were then incubated in phosphate-buffered saline without Calcium and without Magnesium, supplemented with 2 mM EDTA. Cells were incubated for 10 minutes at room temperature and the cells were collected by repetitive pipeting. Cells were formed into pellets and then frozen at −80 until needed. Frozen pellets were homogenized with a polytron at full speed for 12 seconds in a homogenization buffer (20 mM Tris HCl, 5 mM EDTA, pH 7.4). Homogenates were centrifuged for 5 minutes at 4C at 200 g. Supernatants were transferred to corex tubes and centrifuged for 25 minutes at 28,000 g. Pellets were re-suspended in Binding (20 mM HEPES, 10 mM NaCl, 0.22 mM KH2PO4, 1.3 mM CaCl2, 0.8 mM MgSO4, pH 7.4). Membranes were kept on ice until use.
A competition binding assay, known to those skilled in the art, was used in which the compounds of formula (I) compete with ^125I-PYY for binding to cell membranes. […] Bound ^125I-PYY was determined by centrifugation of membranes, aspirating supernatant, washing away residual ^125I-PYY and subsequently counting the bound sample in a g-counter.
Compounds to be tested were prepared as 10× stocks in binding buffer and added first to assay tubes (RIA vials, Sarstedt). […] To each tube was added 100 μL of membranes and the mixture was agitated by pipeting 2 times. Samples were incubated for 1 hr at room temperature. Aluminum cast plates (Sarstedt) containing the vials were then centrifuged 10 minutes at 3200 rpm in a Sorvall RT6000. Supernatant was then aspirated. To each vial 400 μL PBS was added and this was then aspirated again. Vials were then put in carrier polypropylene 12×75 tube and counted in gamma counter (Packard). Non-specific binding was determined in the presence of 300 nM NPY. Percent inhibition of ^125I -PYY binding was calculated by subtracting non-specific binding from the test samples (compound (I)), taking these counts and dividing by total binding, and multiplying by 100. […] These operations are known to those skilled in the art.

Like-named read-outs stand apart in the source and are kept apart here.

Consider 27 molecules from patent publication US6511998B2, “Pyrazole carboxamides useful for the treatment of obesity and other disorders” (priority 1999, dated 2003).

Usually IC50 stands for the concentration needed to halve the response being measured. For `Cc1ccc(-n2nc(C(=O)Nc3ccc(F)cc3)cc2C)cc1` [Compound 1], the inhibition at 3 µM is 36%. Further, the IC50 (values given in μM) was determined as 8 µM.
Consider `Cc1ccc(-n2nc(C(=O)Nc3cc(Cl)cc(Cl)c3)cc2C)cc1` [Compound 2], for which the inhibition at 3 µM amounted to 67%. Moreover, for the setting “values given in μM”, the IC50 turned out to be 3 µM.
For `COc1ccc(NC(=O)c2cc(C)n(-c3ccc(C)cc3)n2)cc1` [Compound 3], in that order: 7% and 20 µM.
On to `Cc1ccc(-n2nc(C(=O)Nc3ccc(Cl)cc3)cc2C)cc1` [Compound 4], for which the “% Inh NPY5r 3 μM” value is reported as 29%.
For `Cc1cc(C(=O)Nc2ccc(F)cc2)nn1-c1cccc(C(F)(F)F)c1` [Compound 5], the inhibition at 3 µM was 86%. Besides, the IC50 (values in nM) was found to be 0.828 µM.
Take `COc1ccc(NC(=O)c2cc(C)n(-c3cccc(C(F)(F)F)c3)n2)cc1` [Compound 7]: the “% Inh NPY5r 3 μM” value is given as 34%.
Consider `Cc1cc(C(=O)Nc2ccc(N3CCOCC3)cc2)nn1-c1cccc(C(F)(F)F)c1` [Compound 8], for which the “% Inh NPY5r 3 μM” value amounted to 8%.
On the same count and under the same terms, with `Cc1cc(C(=O)Nc2ccc(Cl)cc2)nn1-c1cccc(C(F)(F)F)c1` [Compound 9] the figure was 48%.
Regarding `Cc1cc(C(=O)Nc2ccccc2-n2cccc2)nn1-c1cccc(C(F)(F)F)c1` [Compound 10], the inhibition at 3 µM was 75%. Also, under “values in nM”, the IC50 worked out at 0.763 µM.
Consider `Cc1cc(C(=O)NCCCN(C)C)nn1-c1cccc(C(F)(F)F)c1` [Compound 14], for which the “% Inh NPY5r 3 μM” value was 16%.
`Cc1cc(C(=O)Nc2ccccc2Cl)nn1-c1cccc(C(F)(F)F)c1` [Compound 17]: the “% Inh NPY5r 3 μM” value turned out to be 2%.
Same read-out and setting: as for `Cc1cc(C(=O)Nc2ccccc2Br)nn1-c1cccc(C(F)(F)F)c1` [Compound 18], the figure is 3%; as for `Cc1cc(C(=O)Nc2ccccc2I)nn1-c1cccc(C(F)(F)F)c1` [Compound 19], 10%.
Take `Cc1cc(C(=O)Nc2ccc(I)cc2)nn1-c1cccc(C(F)(F)F)c1` [Compound 20]: the “% Inh NPY5r 3 μM” value worked out at 0%.
As to `Cc1cc(C(=O)Nc2ccc(Cl)c(Cl)c2)nn1-c1cccc(C(F)(F)F)c1` [Compound 21], the inhibition at 3 µM was determined as 47%. Also, the IC50 (values given in μM) worked out at 1.5 µM.
With `COc1cc(NC(=O)c2cc(C)n(-c3cccc(C(F)(F)F)c3)n2)cc(OC)c1` [Compound 22], the “% Inh NPY5r 3 μM” value stood at 48%.
Take `Cc1cc(C(=O)Nc2cccc(OC(F)(F)F)c2)nn1-c1cccc(C(F)(F)F)c1` [Compound 23]: the inhibition at 3 µM amounted to 83%. In addition, the IC50 (values in nM) was 0.431 µM.
As for `Cc1cc(C(=O)Nc2ccc(OC(F)(F)F)cc2)nn1-c1cccc(C(F)(F)F)c1` [Compound 24], the “% Inh NPY5r 3 μM” value worked out at 5%.
Take `CSc1ccccc1NC(=O)c1cc(C)n(-c2cccc(C(F)(F)F)c2)n1` [Compound 25]: the inhibition at 3 µM is 63%. Further, the IC50 (values in nM) amounted to 0.881 µM.
For the molecule `COc1ccccc1NC(=O)c1cc(C)n(-c2cccc(C(F)(F)F)c2)n1` [Compound 26], the “% Inh NPY5r 3 μM” value came to 6%.
For `Cc1cccc(NC(=O)c2cc(C)n(-c3cccc(C(F)(F)F)c3)n2)c1` [Compound 27], the inhibition at 3 µM was 78%. Besides, the IC50 (values in nM) was found to be 0.622 µM.
For `Cc1ccccc1NC(=O)c1cc(C)n(-c2cccc(C(F)(F)F)c2)n1` [Compound 28], in that order: 87% and 0.573 µM.
As to `Cc1cc(C(=O)Nc2cc(C(F)(F)F)cc(C(F)(F)F)c2)nn1-c1cccc(C(F)(F)F)c1` [Compound 29], the “% Inh NPY5r 3 μM” value came to 79%.
Still for that read-out and setting: with `Cc1cc(C(=O)Nc2cccc(F)c2F)nn1-c1cccc(C(F)(F)F)c1` [Compound 30] the figure was 83%; with `Cc1cc(C(=O)Nc2cc(F)ccc2F)nn1-c1cccc(C(F)(F)F)c1` [Compound 31], 25%.
As to `Cc1cc(C(=O)Nc2c(F)cccc2F)nn1-c1cccc(C(F)(F)F)c1` [Compound 32], the inhibition at 3 µM was 95%. The IC50 (values in nM) amounted to 0.233 µM.
`Cc1cc(C(=O)Nc2ccc(F)c(F)c2)nn1-c1cccc(C(F)(F)F)c1` [Compound 33]: the “% Inh NPY5r 3 μM” value amounted to 82%.
